From patent US11021507B2, “Myricetin derivative and preparing method thereof, and application of same for treating colitis, preventing and treating colitis tumorigenesis, and treating colorectal cancer” (MARINE BIOMEDICAL RESEARCH INSTITUTE OF QINGDAO CO., LTD., priority 2016, dated 2021)
In brackets after ≈: the same amount, converted by molar mass.

Tests used:
[1] = system: mouse peritoneal macrophage RAW264.7; test: Cytotoxicity / cell proliferation in RAW264.7 macrophages; format: cell-based; details: incubated 24 hours; dose increased to 20 μM
Text: Therefore, this series of compounds may be considered suitable for drug development for treating chronic colitis and inflammatory bowel disease.

[2] = system: dextran sulfate sodium (DSS)-induced chronic colitis in mice; test: DSS-induced chronic colitis model in mice; format: in vivo, C57BL/6 mice; details: for Diarrhea (general symptoms) during drug administration / Number of mice with no obvious diarrhea: 100 mg/kg daily, six mice per group; for Diarrhea (general symptoms) during drug administration: 18 days; for Grading scores for chronic inflammation of colon: number of mice colons with score + / Grading scores for chronic inflammation of colon: number of mice colons with score ++ / Grading scores for chronic inflammation of colon: number of mice colons with score 0: 3 mice examined per group, HE staining; for Grading scores for chronic inflammation of colon: number of mice colons with score +: + = slight inflammatory cell infiltration; for Grading scores for chronic inflammation of colon: number of mice colons with score ++: ++ = moderate inflammatory cell infiltration; for Grading scores for chronic inflammation of colon: number of mice colons with score 0: score 0 = no obvious inflammatory cell infiltration; for Colon length compared with model group / Body weight compared with model group: P<0.05; for Body weight compared with model group: FIG. 11
Text: Determination of the therapeutic effects of myricetin derivative M5, M6 and M7 on dextran sulfate sodium (DSS)-induced chronic colitis in mice
1. Compounds tested and control drugs: myricetin derivative M5, M6 and M7, positive control drug-sulfasalazine (SASP, from Sigma); control drug-myricetin;
Experimental animals: C57BL/6 mice, 20 to 22 g, both male and female, SPF grade provided by Charles River Laboratories, Beijing.
2. DSS-induced chronic colitis model in mice: 36 C57BL/6 mice were randomly divided into six groups, with six mice in each group. DSS (0.5 g) was weighed and dissolved in 50 ml of purified water, for 6 mice to drink in one day. The DSS water was made freshly and was provided at fixed time on a daily basis for 7 days successively, which was then replaced by freshly-made purified drinking water for the next successive 14 days. The same procedure was repeated successively for 3 times. Each group of mice was given the same treatment for the preparation of chronic colitis model. 3. Drug preparation method: 3.1 Solvent control group: 0.5 mL of DMSO was added to 10 mL of 0.5% CMC-Na. 3.2 Myricetin derivative M5 and M6 tested: 100 mg of M5 and M6 each was weighed and dissolved in 0.5 ml of DMSO, and diluted to 10 mL with 0.5% CMC-Na. 3.3 Myricetin derivative M7 tested: 100 mg of M7 was weighed and dissolved in 10 mL of 5% sodium bicarbonate injection. 3.4 Myricetin control: 100 mg of myricetin was weighed and dissolved in 10 mL of 0.5% CMC-Na. 3.5 Sulfasalazine (SASP): 100 mg of SASP was weighed and dissolved in 10 mL of saline. 4. Administration method: the body weight of mice was weighed daily, and drugs were administered 0.01 ml/g (100 mg/kg) consecutively for 18 days. 5. Animal observation and treatment method: body weight, diet, diarrhea (or bloody stools) etc. were observed daily. At the end of the experiment, mice were sacrificed for dissection. The colon and small intestine were dissected out for visual observation and pathological analysis. Pathological examination methods and evaluation criteria: the colons of each group were fixed with 10% formalin followed by routine paraffin embedding, sectioning and HE staining. The degree of colonic inflammation in each group was evaluated under microscope. According to the degree of inflammatory cell infiltration in colonic lamina propria, the following grading criteria were established: level 0, no obvious inflammatory cell infiltration; +(level 1), slight inflammatory cell infiltration; ++(level 2), moderate inflammatory cell infiltration; +++(level 3), severe inflammatory cell infiltration and may be accompanied by necrosis or loss of mucosal cells.
Determination of Therapeutic Effects of Myricetin Derivative M13 and M14 on DSS-Induced Chronic Colitis in Mice
See Example 8 for the experimental method.

[3] = Water solubility test (equilibrium solubility in pure water, LC/MS); format: physicochemical; details: 37° C.; for solubility at 24 h: ultrapure water, thermodynamic from solid
Description: Water solubility test for myricetin derivative M5, M6 and M10
Instrument: Waters Alliance e2695 LC/MS; chromatographic column: Waters×Bridge C18 4.6×150 mm.
Appropriate amount of said myricetin derivative was weighed and dissolved in methanol to prepare a solution of 1 mg/ml respectively, which was diluted with methanol to different concentrations of working solution as standard samples for testing.
2. 1 mL of ultrapure water was added into a 1.5 ml transparent EP tube. Appropriate amount of said myricetin derivative was each added into a transparent EP tube, followed by vortex mixation and ultrasonication till the drug was no longer dissolved (the solution appeared cloudy or had suspended particles). The mixture was then placed in an incubating oscillator for shaking at the temperature of (37±1) ° C., 100 r/min, for 24 hours, to achieve a sufficient solubility balance. 24 hours later, the saturated solution was taken out for centrifugation at 3000 r/min for 15 min. The supernatant was immediately filtered through a 0.45 μm microporous membrane, and the initial part of the filtrate was discarded. Samples were added for chromatography. The peak area was measured and the equilibrium solubility of each compound in pure water was calculated using a standard curve.

[4] = system: azomethane (AOM)/dextran sulfate sodium (DSS)-induced chronic ulcerative colitis and inflammation-associated tumorigenesis; test: AOM/DSS-induced chronic ulcerative colitis and inflammation-associated tumorigenesis in mice; format: in vivo, C57BL/6 mice; details: 100 mg/kg aspirin or myricetin; M10 25-100 mg/kg; 12 weeks; FIG. 8
Text: Determination of therapeutic effect of myricetin derivative M10 on azomethane (AOM)/dextran sulfate sodium (DSS)-induced chronic ulcerative colitis and inflammation-associated tumorigenesis.
Compound tested and control drugs: myricetin derivative M10, control compound myricetin, aspirin (Sigma).
Experimental animals: C57BL/6 mice, 20 to 22 g, both male and female, SPF grade provided by Beijing Vital Lihua Experimental Animal Company, and mice were fed with standard animal feed.
Animal models of AOM/DSS-induced chronic colitis and inflammation-associated tumorigenesis: 48 C57BL/6 mice were randomly divided into six groups with eight mice in each group, including model group, for which 0.5% CMC-Na was administered intragastrically every day; aspirin group, for which 100 mg/kg of aspirin (dissolved in 0.5% CMC-Na) was administered intragastrically; myricetin control group, for which 100 mg/kg of myricetin (dissolved in 0.5% CMCNa) was administered intragastrically; M10 high dose group, for which 100 mg/kg of M10 (dissolved in pure water) was administered intragastrically; M10 medium dose group, for which 50 mg/kg of M10 (dissolved in pure water) was administered intragastrically; M10 low dose group, for which 25 mg/kg of M10 (dissolved in pure water) was administered intragastrically.
Preparation of chronic ulcerative colitis mice model: said groups of mice were intraperitoneally injected with 10 mg/kg of azoxymethane (AOM) on day one. Purified drinking water containing 2% dextran sulfate sodium (DSS) was freshly made and provided on day one and on the next six consecutive days, the replaced by purified drinking water for the next seven consecutive days. The above procedure was then repeated for 3 more times.
M10-treated group: 200 mg of M10 was weighed and dissolved in 10 mL of 0.5% CMC-Na solution (20 mg/mL), and consecutively diluted 2 times and 5 times for future use. 0.2 mL of each prepared solutions was given intragastrically to mice (the body weight was assumed as 20 g per mouse), namely divided into high, medium or small dose groups. Myricetin control group: 200 mg of myricetin was weighed and dissolved in 10 mL of 0.5% CMC-Na. Aspirin-treated group: 200 mg of aspirin was weighed and dissolved in 10 mL of 0.5% CMC-Na. Administration method: The body weight of mice was measured daily, and drugs were administered at 0.01 mL/g (100 mg/kg) per day for 12 consecutive weeks. 4. Animal observation and treatment methods: weight, diet, diarrhea (or bloody stools) etc. were observed daily.
At the end of the experiment, mice were sacrificed. The colon and small intestine were dissected out for visual observation and pathological analysis. Pathological examination methods and evaluation criteria: the mice colons of each group were fixed with 10% formalin, followed by routine paraffin embedding, sectioning and HE staining. The developmental degree of colonic inflammation and colon cancer in each group of mice was evaluated under microscopic observation.

[5] = 100 mg/kg for 18 days, end of experiment, FIG. 2
[6] = Example 17, method of Example 8
[7] = Example 17, method of Example 8, FIG. 12

CC(=O)OC[C@H]1O[C@@H](O[C@H]2[C@H](OC(C)=O)[C@@H](OC(C)=O)[C@H](Oc3c(-c4cc(OCc5ccccc5)c(OCc5ccccc5)c(OCc5ccccc5)c4)oc4cc(OCc5ccccc5)cc(O)c4c3=O)O[C@@H]2COC(C)=O)[C@H](OC(C)=O)[C@@H](OC(C)=O)[C@H]1OC(C)=O [M5]
Inhibitory effect on cell proliferation (cytotoxic effect) [1]: no significant inhibitory effect | Diarrhea (general symptoms) during drug administration [2]: no significant reduction in diarrhea | Grading scores for chronic inflammation of colon: number of mice colons with score + ([2]; 100 mg/kg for 18 days): 1 | Grading scores for chronic inflammation of colon: number of mice colons with score ++ ([2]; 100 mg/kg for 18 days): 2 | Solubility (in words) ([3]; 24 h, per Table 2): very low | solubility at 24 h [3]: < 0.1 µg/mL

CC(=O)OC[C@H]1O[C@@H](O[C@H]2[C@H](OC(C)=O)[C@@H](OC(C)=O)[C@H](Oc3c(-c4cc(O)c(O)c(O)c4)oc4cc(O)cc(O)c4c3=O)O[C@@H]2COC(C)=O)[C@H](OC(C)=O)[C@@H](OC(C)=O)[C@H]1OC(C)=O [M6]
Inhibitory effect on cell proliferation (cytotoxic effect) [1]: no significant inhibitory effect | Diarrhea (general symptoms) during drug administration [2]: slight reduction in diarrhea | Number of mice with no obvious diarrhea [2]: 1-2 mice | Grading scores for chronic inflammation of colon: number of mice colons with score + ([2]; 100 mg/kg for 18 days): 2 | Grading scores for chronic inflammation of colon: number of mice colons with score 0 ([2]; 100 mg/kg for 18 days): 1 | Colon length compared with model group [2, 5]: significantly longer | solubility at 24 h [3]: 1.4 µg/mL (≈ 1.49 µM)

O=c1c(O[C@@H]2O[C@H](CO)[C@@H](O[C@@H]3O[C@H](CO)[C@H](O)[C@H](O)[C@H]3O)[C@H](O)[C@H]2O)c(-c2cc(O)c(O)c(O)c2)oc2cc(O)cc(O)c12 [M7]
Inhibitory effect on cell proliferation (cytotoxic effect) [1]: no significant inhibitory effect | Diarrhea (general symptoms) during drug administration [2]: significant reduction in diarrhea | Number of mice with no obvious diarrhea [2]: 4 mice | Grading scores for chronic inflammation of colon: number of mice colons with score 0 ([2]; 100 mg/kg for 18 days): 3 | Degree of chronic colonic inflammation (pathological examination) ([2]; 100 mg/kg for 18 days, FIG. 3 and Table 1): significantly alleviated | Colon length compared with model group [2, 5]: significantly longer

O=c1c(O[C@@H]2O[C@H](CO[C@@H]3O[C@H](CO)[C@@H](O)[C@H]3O)[C@H](O)[C@H](O)[C@H]2O)c(-c2cc(O)c(O)c(O)c2)oc2cc(O)cc(O)c12 [M13]
Body weight compared with model group [2, 6]: significantly increased | Colon length compared with model group [2, 7]: significantly increased

O=c1c(O[C@@H]2O[C@H](CO[C@@H]3O[C@H](CO)[C@@H](O)[C@H](O)[C@@H]3O)[C@H](O)[C@H](O)[C@H]2O)c(-c2cc(O)c(O)c(O)c2)oc2cc(O)cc(O)c12 [M14]
Body weight compared with model group [2, 6]: significantly increased | Colon length compared with model group [2, 7]: significantly increased

O=C(O)c1cc(/N=N/c2ccc(S(=O)(=O)Nc3ccccn3)cc2)ccc1O [SASP, sulfasalazine, reference compound]
Diarrhea (general symptoms) during drug administration [2]: slight reduction in diarrhea | Grading scores for chronic inflammation of colon: number of mice colons with score + ([2]; 100 mg/kg for 18 days): 1 | Grading scores for chronic inflammation of colon: number of mice colons with score ++ ([2]; 100 mg/kg for 18 days): 2

CC(=O)Oc1ccccc1C(=O)O [aspirin, reference compound]
Pathological analysis of colon tissue (colon cancer) [4]: alleviated to some extent
